Results on two compounds are retold here after patent US9775797B2, “Personal care composition” (Conopco, Inc., priority 2012, dated 2017).

For this assay, the system named is HaCaT and HeMnDP co-culture. Nature of the assay: coculture melanin content assay (after Calcein-AM viability check). The conditions noted are these: melanin content vs control, 72 hrs incubation. It is filed as cell-based. The procedure: The samples at various concentrations were analysed for skin lightening efficacy using the coculture melanin content assay, the details of which are given below: Set up of Co-cultures: • 1. 4*10^4 HaCaT and 4×10^4 […] (1:1) per well (single wells/treatment) in 12-well Nunc plates on Day 0 are seeded so as to establish a co-culture system. • 2. The volume of media per well should be 1 mL of a 1:1 mix of Melanocyte Growth Media and Keratinocyte Growth Media • 3. 24 hrs later, fresh media containing actives are added. Again 1 mL of a 1:1 mix of MGM and KGM for active addition are used. • 4. Plates are incubated for 72 hrs in a 37° C. CO2 incubator. • 5. […] In the meantime, the fluorescence is measured (excitation at 490 nm and emission at 520 nm) using TECAN instrument after 30 min of dye incubation. • 5. After reading the plate, the buffer containing Calcein is removed and melanin content assay is then carried out. […] After the reading for Calcein-AM is taken, the buffer containing Calcein-AM is removed from all the wells. • 2. […] The absorbance is measured in the Lab-5 Tecan instrument at 405 nm. • 6. For non-cytotoxic concentrations (based on Calcein cut-off of ±15% of control), the average MCA is calculated and reported as MCA as percentage of the control sample. The % inhibition is then calculated. […]

SMILES strings stand for the structures.

For the compound `O=C1C[C@@H](c2ccc(O)c(O[C@@H]3O[C@H](CO)[C@@H](O)[C@H](O)[C@H]3O)c2)Oc2cc(O[C@@H]3O[C@H](CO)[C@@H](O)[C@H](O)[C@H]3O)ccc21` [Butrin, butrin], where the note is “sample concentration 0.5 ppm”, the % Inhibition (usually the percentage by which the read-out fell short of the control) was 31%.

As to `O=c1cc(CO)occ1O` [Example 3, Kojic Acid], the inhibition (as a rule, the drop in the measured response relative to a control, in per cent) at 14.2 ppm (Homo sapiens, HaCaT, sample concentration 14.2 ppm) is 22%.
